In ChEMBL document CHEMBL5550122, “Photodynamic anticancer activity evaluation of novel 5-aminolevulinic acid and 3-hydroxypyridinone conjugates” (Bioorg Med Chem, 2024):
The source made the active and inactive calls.

Columns and labels:
Format in all cases: functional, cell-based
HeLa [1] = experiment: Cytotoxicity against human HeLa cells assessed as reduction in cell viability at 100 to 400 uM incubated for 4 hrs under dark condition by MTT assay; conditions: dose 100-400 µM
HeLa [2] = experiment: Cytotoxicity against human HeLa cells assessed as reduction in cell viability at 100 to 400 uM preincubated for 4 hrs under dark condition followed by irradiation with blue light at 5 J.cm^-2 energy level and measured after 18 hrs by MTT assay; conditions: dose 100-400 µM, time 22.0 hrs
MCF7 [3] = experiment: Cytotoxicity against human MCF7 cells assessed as reduction in cell viability at 100 to 400 uM incubated for 4 hrs under dark condition by MTT assay; conditions: dose 100-400 µM
A-375 [4] = experiment: Cytotoxicity against human A-375 cells assessed as reduction in cell viability at 100 to 400 uM preincubated for 4 hrs under dark condition followed by irradiation with blue light at 5 J.cm^-2 energy level and measured after 18 hrs by MTT assay; conditions: dose 100-400 µM, time 22.0 hrs
A-375 [5] = experiment: Cytotoxicity against human A-375 cells assessed as reduction in cell viability at 100 to 400 uM incubated for 4 hrs under dark condition by MTT assay; conditions: dose 100-400 µM
MCF7 [6] = experiment: Cytotoxicity against human MCF7 cells assessed as reduction in cell viability at 100 to 400 uM preincubated for 4 hrs under dark condition followed by irradiation with blue light at 5 J.cm^-2 energy level and measured after 18 hrs by MTT assay; conditions: dose 100-400 µM, time 22.0 hrs

Measured: Activity

COC(=O)CCC(=O)CNC(=O)CCn1cc(O)c(=O)cc1C
inactive: all assays above

COC(=O)CCC(=O)CNC(=O)[C@H](CC(C)C)NC(=O)Cn1ccc(=O)c(O)c1C
inactive: all assays above

COC(=O)CCC(=O)CNC(=O)[C@H](Cc1ccccc1)NC(=O)Cn1ccc(=O)c(O)c1C
inactive: all assays above

COC(=O)CCC(=O)CNC(=O)[C@H](CC(C)C)NC(=O)Cn1cc(O)c(=O)cc1C
inactive: all assays above

COC(=O)CCC(=O)CNC(=O)Cn1cc(O)c(=O)cc1CO
inactive: all assays above

COC(=O)CCC(=O)CNC(=O)CCCCCn1cc(O)c(=O)cc1CO
inactive: all assays above

COC(=O)CCC(=O)CNC(=O)CCCCn1cc(O)c(=O)cc1CO
inactive: all assays above

COC(=O)CCC(=O)CNC(=O)CCn1cc(O)c(=O)cc1CO
inactive: all assays above

COC(=O)CCC(=O)CNC(=O)CCCCn1cc(O)c(=O)cc1C
inactive: all assays above

COC(=O)CCC(=O)CNC(=O)CCCCCn1cc(O)c(=O)cc1C
inactive: all assays above

COC(=O)CCC(=O)CNC(=O)[C@H](Cc1ccccc1)NC(=O)CCCCCn1cc(O)c(=O)cc1C
inactive: all assays above
